# Laboratory results: US8809002B2, “MUC1, caspase-8, and DED-containing proteins” (Dana-Farber Cancer Institute, Inc., priority 2008, dated 2014)
# Ends that are not written are not given here.
# Assays:
# caspase-8 = experiment: In vitro binding assay (GST pull-down) of MUC1-CD proteins with caspase-8; parameters: species or system human; details: immunoblot (FIG. 9A, 9D)
# Protocol: FIG. 9A depicts the amino acid sequence for human MUC1-CD (SEQ ID NO:2). Phosphorylation sites and regions for β-catenin, IKKβ and IKKγ binding are indicated by brackets of arrows (upper panel). GST (glutathione-S-transferase) or GST-caspase-8 protein were incubated with purified His-MUC1-CD. The adsorbates and the input protein were immunoblotted with anti-His and anti-GST antibodies as indicated to the right of the photographs. The molecular weights of each of the proteins (in kilodaltons (kDa)) are indicated to the left of each of the photographs.
# FIG. 9D: GST or the indicated GST-MUC1-CD proteins were incubated with His-caspase-8-p18 (upper panel). The adsorbates were immunoblotted with anti-His and anti-GST antibodies. GST or GST-MUC1-CD(1-20) was incubated with His-caspase-8-p18 in the presence of increasing amounts of MUC1-CD(1-20) peptide (lower panel). […] Input of the GST proteins was assessed by Coomassie blue staining.
# Purified GST, GST-MUC1-CD(1-72), GST-MUC1-CD deletion mutants, GST-caspase-8, GST-caspase-8 deletion mutants, GST-FADD, GST-N-FADD and GST-C-FADD protein (36) were purified from E. coli (BL21 DE3) and immobilized on glutathione-agarose beads (Pierce). […] Adsorbates bound to the beads were analyzed by solubilizing the protein/bead mixture in Laemli buffer following by sodium dodecyl sulfate polyacrylamide gel electrophoresis (SDS-PAGE) and immunoblotting. […]
# FADD [1] = molecular target: T1, FADD (Homo sapiens, UniProt Q13158); experiment: In vitro competition: GST-caspase-8(1-183) binding to FADD with increasing amounts of MUC1-CD; details: increasing amounts of MUC1-CD protein (FIG. 12C)
# T1 sequence (Q13158 1-208): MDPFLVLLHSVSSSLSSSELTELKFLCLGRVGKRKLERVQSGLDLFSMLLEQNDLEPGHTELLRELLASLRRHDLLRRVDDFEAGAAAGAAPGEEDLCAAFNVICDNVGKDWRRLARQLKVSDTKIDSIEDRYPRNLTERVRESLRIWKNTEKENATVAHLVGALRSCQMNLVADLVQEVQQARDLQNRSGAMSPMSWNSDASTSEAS
# Protocol: FIG. 12C: GST or GST-caspase-8(1-183) containing the DEDs was incubated with FADD in the absence or presence of increasing amounts of purified MUC1-CD. The adsorbates and input FADD were immunoblotted with anti-FADD antibody. Input of GST and GST-caspase-8(1-183) was determined by Coomassie blue staining. Input of MUC1-CD was determined by immunoblotting.
# (§1) Purified GST, GST-MUC1-CD(1-72), GST-MUC1-CD deletion mutants, GST-caspase-8, GST-caspase-8 deletion mutants, GST-FADD, GST-N-FADD and GST-C-FADD protein (36) were purified from E. coli (BL21 DE3) and immobilized on glutathione-agarose beads (Pierce). His-MUC1-CD(1-72) and His-caspase-8 deletion mutant proteins were purified on Ni-NTA beads (Qiagen, Valencia, Calif.). GST and GST fusion proteins bound to glutathione beads were incubated with purified soluble proteins for 2 hours at 4° C., and washed. Adsorbates bound to the beads were analyzed by solubilizing the protein/bead mixture in Laemli buffer following by sodium dodecyl sulfate polyacrylamide gel electrophoresis (SDS-PAGE) and immunoblotting. For competition studies, GST-caspase-8 DED protein bound to FADD was incubated with increasing amounts of MUC1-CD protein. Precipitated proteins were subjected to SDS-PAGE and immunoblot analysis. […]
# FADD [2] = molecular target: T1, FADD; experiment: In vitro binding assay (GST pull-down) of GST-MUC1-CD proteins with purified FADD; details: immunoblot (FIG. 12A)
# Protocol: FIG. 12A: GST and the indicated GST-MUC1-CD proteins were incubated with purified FADD. The adsorbates and input FADD were immunoblotted with anti-FADD antibody. The GST and GSTMUC1-CD proteins were stained with Coomassie blue.
# Purified GST, GST-MUC1-CD(1-72), GST-MUC1-CD deletion mutants, GST-caspase-8, GST-caspase-8 deletion mutants, GST-FADD, GST-N-FADD and GST-C-FADD protein (36) were purified from E. coli (BL21 DE3) and immobilized on glutathione-agarose beads (Pierce). His-MUC1-CD(1-72) and His-caspase-8 deletion mutant proteins were purified on Ni-NTA beads (Qiagen, Valencia, Calif.). GST and GST fusion proteins bound to glutathione beads were incubated with purified soluble proteins for 2 hours at 4° C., and washed. Adsorbates bound to the beads were analyzed by solubilizing the protein/bead mixture in Laemli buffer following by sodium dodecyl sulfate polyacrylamide gel electrophoresis (SDS-PAGE) and immunoblotting. For competition studies, GST-caspase-8 DED protein bound to FADD was incubated with increasing amounts of MUC1-CD protein. Precipitated proteins were subjected to SDS-PAGE and immunoblot analysis. In certain studies, binding was performed in the presence of a synthetic peptide ([…]) (SEQ ID NO:3) derived from amino acids 1-20 from MUC1-CD (Molecular Biology Core Facility, Dana-Farber Cancer Institute).
# MUC1-C = experiment: Silencing of MUC1 expression in BC-1 cells, immunoblot; format: cell-based, human; details: lentivirus, compared to control siRNA (FIG. 1A)
# Text: FIG. 1A: BC-1 cells were infected with lentiviruses expressing the CsiRNA, MUC1siRNA#1 or MUC1siRNA#2. Lysates from the indicated cell populations were immunoblotted with anti-MUC1-C and anti-β-actin antibodies as indicated to the right of the photographs. The molecular weights of each of the proteins (in kilodaltons (kDa)) are indicated to the left of each of the photographs.
# The BLOCK-iT Target Screening System (Invitrogen, Carlsbad, Calif.) was used to generate two MUC1-specific siRNA molecules (Sequence #1: […] (SEQ ID NO:31); or Sequence #2: […] (SEQ ID NO:32)) and a control siRNA sequence ([…]; SEQ ID NO:33). The RNAi cassettes (nucleic acids encoding the siRNA molecules) were inserted into pLenti4/BLOCK-iT-DEST by LR recombination for the generation of lentiviral vectors. BC-1 cells were infected with the lentiviruses at a multiplicity of infection of 5 in the presence of 8 μg/ml polybrene. Cell clones were selected in methylcellulose semi-solid medium containing 200 μg/ml Zeocin and assayed for downregulation of MUC1 by immunoblotting. […]
# Cells were lysed by sonication in the presence of 10 mM Tris-HCl, pH 7.5, 150 mM NaCl, 5 mM EDTA, 0.5% NP-40, 100 μg/ml phenylmethylsulphonyl fluoride (PMSF), and standard protease inhibitors. […] Reactivity was detected with horseradish peroxidase-conjugated secondary antibodies and chemiluminescence (GE Healthcare Biosciences, Piscataway, N.J.).
# BC-1 cells = experiment: FasL-induced apoptosis of BC-1 cells (sub-G1 DNA content); format: cell-based, human; details: 50 ng/ml FasL, 24 hours (FIG. 1C, 1D)
# Protocol: FIG. 1C: The indicated BC-1 cell populations were treated with 50 ng/ml FasL for 24 hours and then analyzed by fluorescence assisted cell sorting (FACS) to determine the sub-G1 DNA content in the cells.
# FIG. 1D: The results obtained with the indicated BC-1 cell populations left untreated (open bars) or treated with FasL (solid bars) are expressed as the percentage apoptosis (mean+SD for three experiments).
# Cells were fixed in 70% ethanol and incubated in PBS containing 50 μg/ml RNase and 2.5 μg/ml propidium iodide. DNA content was analyzed by flow cytometry. The percentage of cells with sub-G1 DNA was determined by the MODFIT LT Program (Verity Software, Topsham, Me.). Cells were also suspended in Annexin-V-FLOUS containing propidium iodide (Roche) and analyzed by flow cytometry.
# caspase-8-p18 = molecular target: T2, caspase-8-p18 (Homo sapiens, UniProt Q14790); experiment: In vitro binding assay: GST-MUC1-CD(1-20) with His-caspase-8-p18 in the presence of MUC1-CD(1-20) peptide; details: increasing amounts of peptide; GST pull-down, immunoblot (FIG. 9D, lower)
# T2 construct: His; made in house; host or cells: E. coli BL21 DE3 is stated for the GST proteins; no host is printed for the His proteins
# T2 sequence (Q14790 184-384): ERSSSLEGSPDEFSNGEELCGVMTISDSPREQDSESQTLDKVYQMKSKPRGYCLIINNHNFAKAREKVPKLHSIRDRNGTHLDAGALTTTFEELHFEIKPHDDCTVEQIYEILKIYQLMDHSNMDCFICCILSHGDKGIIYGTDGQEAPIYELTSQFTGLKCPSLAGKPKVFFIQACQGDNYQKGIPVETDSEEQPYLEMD
# Protocol: FIG. 9D: GST or the indicated GST-MUC1-CD proteins were incubated with His-caspase-8-p18 (upper panel). The adsorbates were immunoblotted with anti-His and anti-GST antibodies. GST or GST-MUC1-CD(1-20) was incubated with His-caspase-8-p18 in the presence of increasing amounts of MUC1-CD(1-20) peptide (lower panel). The adsorbates were immunoblotted with anti-caspase-8 antibody as indicated to the right of the photographs. Input of the GST proteins was assessed by Coomassie blue staining.
# as §1
# MUC1-CD = molecular target: T3, MUC1-CD (Homo sapiens, UniProt P15941); experiment: In vitro binding assay of His-caspase-8-p18 fragments with GST-MUC1-CD; details: GST-MUC1-CD on glutathione beads (FIG. 9C)
# T3 construct: Purified GST, GST-MUC1-CD(1-72), GST-MUC1-CD deletion mutants; made in house; host or cells: E. coli BL21 DE3
# T3 sequence (P15941 1184-1255): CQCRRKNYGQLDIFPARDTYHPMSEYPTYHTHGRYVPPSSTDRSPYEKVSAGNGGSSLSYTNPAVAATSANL
# Protocol: FIG. 9C is a schematic of his-tagged caspasc-8 p18 fragment depicting the A, B, C and AB subfragments (upper panel). The shaded region denotes position of the His tag. GST or GST-MUC1-CD was incubated with the indicated His-caspase-8 proteins. The adsorbates and input proteins ( 1/10th that used in the reactions) were immunoblotted with anti-His and anti-GST antibodies as indicated to the right of the photographs.
# as §1
# Sequence of caspase-8 (Q14790 184-384 limits assumed): as the sequence (Q14790 184-384) above
substance,measurement,setting,value
MUC1-CD(1-20): GST-MUC1-CD fragment containing just amino acids 1-20 of MUC1-CD (CQCRRKNYGQLDIFPARDTY; cysteine pairing not given here; also: GST fusion),binding to caspase-8,caspase-8,able to interact with caspase-8
"MUC1-CD: 72 amino acid cytoplasmic domain of full-length human MUC1, purified as His- or GST-tagged protein",interaction between FADD and caspase-8 (1-183),FADD [1],progressive decrease
same,binding to FADD,FADD [2],interact directly
same,binding to caspase-8,caspase-8,binds to caspase-8
"YEKVSAGNGGSSLSYTNPAVAATSANL (also: GST fusion; listed as Homo sapiens) [MUC1-CD(46-72), GST-MUC1-CD deletion mutant, amino acids 46-72 of MUC1-CD]",binding to FADD,FADD [2],found to bind to FADD
AAGGTACCATCAATGTCCACG (expressed or natural sequence) [MUC1siRNA#1],MUC1-C expression,MUC1-C,stably downregulated
same,FasL-induced apoptosis,BC-1 cells,sensitized
"CQCRRKNYGQLDIFPARDTY (listed as Homo sapiens) [MUC1-CD(1-20) peptide, synthetic peptide derived from amino acids 1-20 from MUC1-CD]",binding of MUC1-CD(1-20) to caspase-8-p18 in the presence of the peptide,caspase-8-p18,inhibited
AAGTTCAGTGCCCAGCTCTAC (expressed or natural sequence) [MUC1siRNA#2],MUC1-C expression,MUC1-C,similar
same,FasL-induced apoptosis,BC-1 cells,confirmed
"caspase-8-p18-B: His-tagged fragment B of caspase-8-p18, amino acids 270-322 of human caspase-8 (KLHSIRDRNGTHLDAGALTTTFEELHFEIKPHHDCTVEQIYEILKIYQLMDHS; also: His tag; listed as Homo sapiens)",binding to MUC1-CD,MUC1-CD,binds
"MUC1-CD(1-45): GST-MUC1-CD deletion mutant, amino acids 1-45 of MUC1-CD (CQCRRKNYGQLDIFPARDTYHPMSEYPTYHTHGRYVPPSSTDRSP; cysteine pairing not given here; also: GST fusion)",binding to FADD,FADD [2],not
